The values that follow are results of earlier work, collected in US20100095963A1, “PHARMACEUTICAL COMPOSITIONS” (Schering Corporation, priority 2002, published 2010).

Test in data set [1]: not given
This is another data set of the same source.

Regarding `C[C@@H]1C[C@H]2[C@@H]3CCC4=CC(=O)C=C[C@]4(C)[C@@]3(Cl)[C@@H](O)C[C@]2(C)[C@@]1(OC(=O)c1ccco1)C(=O)CCl` [Mometasone furoate, 9,21-Dichloro-11(beta),17-dihydroxy-16(alpha)-methylpregna-1,4-diene-3,20-dione 17-(2 furoate)], for the setting “acetone”, the solubility in acetone entry is listed as “soluble”. Under “chloroform”, the solubility in chloroform result is reported as “soluble”. Also, the solubility in ethanol entry (ethanol) is “slightly soluble”. In addition, the solubility in isopropanol entry (isopropanol) was “slightly soluble”. Moreover, where the note is “methanol”, the solubility in methanol entry is on record as “slightly soluble”. For the same compound, the solubility in tetrahydrofuran result (tetrahydrofuran) is “freely soluble”. In addition, under “water”, the solubility in water result is given as “practically insoluble”. Moreover, in data set [1], the “partition coefficient between octanol and water” value was “greater than 5000”.
